The inhibition is the change of the read-out against control, counted positive when it falls. High values mean a strong effect, low ones a weak effect.

Results on 3 compounds are retold here after patent US6225332A, “Compositions containing histamine H2 agonists and methods of use in treating allergy and inflammation” (priority 1998, dated 2001).

The subject of data set [1] is human conjunctival mast cells. In words: Miller Test: inhibition of anti-IgE-induced histamine release (mast cell stabilization assay). The format is cell-based. Conditions: for inhibition at 10 µM / inhibition at 100 µM: * p < 0.05, Dunnett's t-test (dimaprit only); for inhibition at 1000 µM: * p < 0.05, Dunnett's t-test (both compounds). An excerpt: While mast cells exist in various tissues and species, there is considerable mast cell heterogeneity within these different sources. Therefore, in order to provide compounds of the present invention which are specific for human conjunctival mast cells, drug compounds need to be tested for inhibition of human conjunctival mast cell degranulation using human conjunctival mast cells. Such efficacy can be determined by using the method described in U.S. Pat. No. 5,360,720 (Miller et al.) and in Miller, et al., "Human conjunctival mast cell responses in vitro to various secretagogues," Ocular Immunology and Inflammation, volume 4, issue 1, pages 39-49 (1996) (the "Miller Test"), the entire contents of the forgoing patent and article are incorporated herein by reference.
The Miller Test is generally performed by the following protocol:
Human conjunctival tissue mast cells are isolated from post-mortem tissue donors obtained within 8 hours of death by various eye banks and transported in Dexsole corneal preservation medium. Tissues are then enzymatically digested by repeated exposure (30 minutes at 37° C.) to collagenase (Type IV) and hyaluronidase (Type I-S) (2 times with 200 U […] each/gram tissue, then 2-4 times with 2000 U each/gram tissue) in Tyrode's buffer containing 0.1% gelatin. Each digestion mixture is filtered over Nitex® cloth (100 µm mesh) and washed with an equal volume of buffer. Filtrates are centrifuged at 825×g (7 mininutes). Pellets are resuspended in buffer then combined for enrichment over a […] Percoll® cushion. The enriched pellet is then washed and resuspended in supplemented RPMI 1640 medium for equilibration at 37° C.
The preparations containing the mast cells are then placed in a culture medium, preferably supplemented RPMI 1640, and allowed to equilibrate at about 30°-37° C. for a minimum of about 40 hours.
After equilibrating for a minimum of about 40 hours, the cells may be harvested from the culture (for example, by gentle flushing utilizing pasteur pipettes), pooled and centrifuged.
Cell pellets may then be resuspended in buffer and viability and mast cell number determined by well known methods. The conjunctival mast cells are now prepared for use in mast cell stabilization assays.
All test drugs are placed into solution immediately prior to use. Generally, each compound is dissolved in Tyrode's buffer containing 0.1% gelatin and diluted to an appropriate concentration.
Cells are harvested from the culture plate and counted for viability (trypan blue exclusion) and mast cell number (toluidine blue O). Mast cells (5000/tube; 1 milliliter ("mL," final volume) are then challenged (37° C.) for 15 minutes with goat-anti-human IgE (10 μg/mL) following treatment (1 or 15 minutes; 37° C.) with test drug or Tyrode's buffer. Total and non-specific release controls are exposed to 0.1% Triton X-100 and goat IgG (10 μg/mL), respectively. The reaction was terminated by centrifugation (500×g, 4° C., 10 minutes). Supernatants are stored at -20° C. until analyzed for histamine content by radioimmunoassay ("RIA").
The IC50 of each compound (concentration at which 50% of the histamine release was inhibited, as compared to control) was then calculated.
The H2 agonists, dimaprit and amthamine, were tested in the Miller Test, as described in Example 1, above. Table I and FIG. 1 illustrate the efficacy of dimaprit and amthamine on the inhibition of histamine release from human conjunctival mast cells.

The subject of data set [2] is mast cells obtained from bronchoalveolar lavage fluid. Conditions: 100 μM; human trials; cited from earlier work.
The test system of data set [3] is human skin mast cells. As to conditions: cited from earlier work.
For data set [4] the following is noted: human, in vivo; cited from earlier work.
Data set [5] relates to rodent mast cell. As to conditions: cited from earlier work.

For `CN(C)CCCSC(=N)N` [dimaprit], in data set [1], the inhibition at 1 µM is 10.1 ± 4.2%, testing at 10 µM gave an inhibition of 14.4 ± 9.3%, at 100 µM the inhibition was 35 ± 3.5% and 1000 µM produced 75.9 ± 3.5% inhibition. This compound also returned an inhibition at 10000 µM in data set [1] (10,000 μM, * p < 0.05, Dunnett's t-test) of 83.6 ± 0.9%.
`Cc1nc(N)sc1CCN` [amthamine] returned an inhibition at 0.1 µM in data set [1] (0.1 μM) of 11%. Further, in data set [1], at 1 µM the inhibition was 3.6 ± 3.9%, the inhibition at 10 µM turned out to be 7.3 ± 6.5%, the inhibition at 100 µM came to 9.9 ± 8.6% and 1000 µM produced 60.5 ± 6.2% inhibition.
With `O=C(O)c1cc(=O)c2c(OCC(O)COc3cccc4oc(C(=O)O)cc(=O)c34)cccc2o1` [Disodium cromoglycate], the “inhibition of mast cells obtained from bronchoalveolar lavage fluid” value in data set [2] is “inhibited mast cells obtained from bronchoalveolar lavage fluid”. Also, the “inhibition of histamine release from human skin mast cells” value in data set [3] is recorded as “not inhibited at all”. For the same compound, the “irritation / side effects” value in data set [4] was “irritating to some patients”. The “inhibition of rodent mast cell degranulation” value in data set [5] is recorded as “shown to inhibit rodent mast cell degranulation”.
